Laboratory results from patent US20210292340A1, “CELL NECROSIS INHIBITOR, PREPARATION METHOD THEREFOR AND USE THEREOF” (SHANGHAI INSTITUTE OF ORGANIC CHEMISTRY, CHINESE ACADEMY OF …, priority 2018, published 2021).
Read-outs that look alike come from different tables or passages of the source.

Columns and labels:
human RIP1 = biological target: T1, human RIP1 (Homo sapiens, UniProt Q13546); assay: Inhibition of ADP-Glo RIP1 kinase activity; type: biochemical
T1 construct: made in house; host or cells: Sf-9 insect cells
T1 sequence (Q13546 1-671): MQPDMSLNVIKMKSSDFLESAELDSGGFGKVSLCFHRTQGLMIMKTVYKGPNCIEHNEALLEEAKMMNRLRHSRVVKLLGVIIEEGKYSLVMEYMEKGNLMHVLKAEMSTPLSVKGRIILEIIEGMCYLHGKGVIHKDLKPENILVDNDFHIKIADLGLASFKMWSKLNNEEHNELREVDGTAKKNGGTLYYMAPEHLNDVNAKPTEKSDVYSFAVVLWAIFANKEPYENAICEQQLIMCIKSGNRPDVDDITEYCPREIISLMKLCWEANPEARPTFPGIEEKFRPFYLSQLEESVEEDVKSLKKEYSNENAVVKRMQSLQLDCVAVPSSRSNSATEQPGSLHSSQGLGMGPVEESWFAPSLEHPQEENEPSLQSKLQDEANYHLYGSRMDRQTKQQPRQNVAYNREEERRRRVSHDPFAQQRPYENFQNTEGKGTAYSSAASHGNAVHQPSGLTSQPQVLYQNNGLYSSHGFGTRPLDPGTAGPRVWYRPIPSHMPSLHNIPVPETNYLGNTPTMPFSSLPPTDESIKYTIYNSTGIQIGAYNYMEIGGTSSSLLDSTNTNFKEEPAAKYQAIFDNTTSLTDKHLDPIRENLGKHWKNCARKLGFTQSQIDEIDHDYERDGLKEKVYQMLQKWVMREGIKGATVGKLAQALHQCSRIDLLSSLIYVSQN
Method: The human RIP1 gene was transduced into Sf-9 insect cells, and the RIP1 protein was purified by Ni+ affinity chromatography and then by S-200 molecular sieve to remove the protein multimers. The obtained RIP1 protein was stored at −70° C., and the activity of the RIP1 protein in catalyzing autophosphorylation was detected by the ADP-Glo™ Kinase Activity Assay Kit (Promega) and the inhibitory activity of the drug against the RIP1 kinase was determined.
100 nL of the compound was transferred to a 384-well assay plate. Two replicate wells were set for each concentration of each drug.
The RIP1 enzyme solution and ATP solution were formulated in an assay buffer (containing 50 mM HEPES pH 7.5, 30 mM MgCl2, 50 mM NaCl, 1 mM DTT, 0.02% CHAPS, and 0.5 mg/ml BSA). Then, 5 μL of the RIP1 enzyme solution (final concentration 50 nM) was added to the assay plate and incubated at room temperature for 1 h. 5 μL of the ATP solution (final concentration 10 μM) was added to the assay plate, and incubate at room temperature for 4 h. Then 5 μL of ADP-Glo reagent was added to the assay plate, and incubated at room temperature for 60 min. 5 μL of a kinase assay solution was added to the assay plate, and incubated at room temperature for 30 min. After readout on Envision, the inhibition rate in each well was calculated from the full-activity well and the background well, and the Ki of the compound was calculated by GraphPad Prism 7 software (using the Morrision equation to fit the curve and calculate the Ki).

Jurkat (FADD−/−) cells = assay: Inhibition of TNF-induced programmed Jurkat (FADD−/−) cell necrosis (Cell Titer-Glo); type: cell-based, human; settings: 20 h, read-out: Cellular IC50 (M) Jurkat (FADD−/−)
Method: Two replicate wells were set for each concentration of each compound.
Jurkat (FADD^−/−) cells (human-derived peripheral blood leukemia T cell line, with FADD gene knocked out) were cultured in vitro. After growing to logarithmic growth phase, the cells were harvested, and centrifuged at 1000 rpm for 5 min. The supernatant was discarded, and the cells were resuspended in fresh medium and adjusted to a cell density of 5×10^5/mL. The cell suspension was added to the culture plate containing the drug (40 μL per well). In the treatment groups, 10 μL of TNF (tumor necrosis factor, final concentration 10 ng/mL) diluted with the cell culture medium was added to each well, and incubated for 20 h in a cell incubator (37° C., 5% CO2). Subsequently, 50 μL of Cell Titer-Glo solution was added to each well and incubated at room temperature for 10 min. Then, the luminescence was detected on BioTek plate reader to measure the intracellular ATP level. The effect of the test compounds in inhibiting TNF-induced cell necrosis was calculated from the full-activity well and background well (with the untreated DMSO control well as 100% cell viability), and the half inhibitory concentration (IC50) of the compound was calculated by Graphpad Prism statistical software.

[1] = Homo sapiens, Jurkat, TNF 10 ng/mL, intracellular ATP level

Row | Structure (SMILES) | Ki (human RIP1) [nM] | IC50 (Jurkat (FADD−/−) cells; [1]) [M] | IC50 (Jurkat (FADD−/−) cells; Homo sapiens, Jurkat) [M] | IC50 (Jurkat (FADD−/−) cells; TNF 10 ng/mL, intracellular ATP level) [M]
1 | Cc1nc2cc3c(cc2[nH]1)OC[C@@H](NC(=O)c1cncn1Cc1ccccc1)C(=O)N3C (stereo in doubt) [RIP1-069] | 31.3 | 4.52e-09 | – | –
2 | CN1C(=O)[C@@H](NC(=O)c2cc(Cc3ccccc3)on2)COc2cc3[nH]ncc3cc21 [RIP1-021] | 10.3 | 5.8e-10 | – | –
3 | CN1C(=O)[C@@H](NC(=O)c2cn(Cc3ccccc3)cn2)COc2cc3[nH]nc(Cl)c3cc21 [RIP1-031] | 0.66 | 2.9e-10 | – | –
4 | CN1C(=O)[C@@H](NC(=O)c2ncn(Cc3ccccc3)n2)COc2cc3[nH]nc(Cl)c3cc21 [RIP1-032] | 20.3 | – | 2.4e-10 | –
5 | CN1C(=O)[C@@H](NC(=O)c2cc(Cc3ccccc3)on2)COc2cc3[nH]nc(Cl)c3cc21 [RIP1-033] | 10.8 | 6.8e-10 | – | –
6 | CN1C(=O)[C@@H](NC(=O)c2cn(Cc3ccccc3)nn2)COc2cc3[nH]nc(Cl)c3cc21 [RIP1-035] | 7.8 | 1.94e-09 | – | –
7 | Cc1nc2cc3c(cc2[nH]1)OC[C@H](NC(=O)c1cc(Cc2ccccc2)on1)C(=O)N3C [RIP1-061] | 44 | 5.86e-09 | – | –
8 | Cc1nc2cc3c(cc2[nH]1)OC[C@H](NC(=O)c1cn(Cc2ccccc2)cn1)C(=O)N3C [RIP1-067] | 28.6 | – | 6.72e-09 | –
9 | Cc1nc2cc3c(cc2[nH]1)OC[C@H](NC(=O)c1ncn(Cc2ccccc2)n1)C(=O)N3C [RIP1-068] | 42.8 | 7.62e-09 | – | –
10 | CN1C(=O)[C@@H](NC(=O)c2nnc(Cc3ccccc3)[nH]2)COc2ccc3ncccc3c21 [RIP1-097] | 23.2 | 1.2e-09 | – | 2.28e-09
11 | CN1C(=O)[C@@H](NC(=O)c2ncn(Cc3ccccc3)n2)COc2ccc3ncccc3c21 [RIP1-098] | 20.9 | 7.25e-10 | – | –
12 | CN1C(=O)[C@@H](NC(=O)c2cn(Cc3ccccc3)cn2)COc2ccc3ncccc3c21 [RIP1-099] | 37.7 | 6.92e-09 | – | –
13 | CN1C(=O)[C@@H](NC(=O)c2cn(Cc3ccccc3)nn2)COc2ccc3ncccc3c21 [RIP1-100] | 20.4 | 3.27e-08 | – | –
14 | CN1C(=O)[C@@H](NC(=O)c2cc(Cc3ccccc3)on2)COc2ccc3ncccc3c21 [RIP1-101] | 17.2 | 5.5e-09 | – | –
15 | CN1C(=O)[C@@H](NC(=O)c2nnc(Cc3ccccc3)[nH]2)COc2ccc3cnccc3c21 [RIP1-107] | 8.9 | – | 1.07e-09 | –
16 | CN1C(=O)[C@@H](NC(=O)c2ncn(Cc3ccccc3)n2)COc2ccc3cnccc3c21 [RIP1-108] | 12.6 | 1.64e-10 | – | –
17 | CN1C(=O)[C@@H](NC(=O)c2cn(Cc3ccccc3)cn2)COc2ccc3cnccc3c21 [RIP1-109] | 6.85 | 7.22e-10 | – | –
18 | CN1C(=O)[C@@H](NC(=O)c2cn(Cc3ccccc3)nn2)COc2ccc3cnccc3c21 [RIP1-110] | 14.6 | 4.44e-09 | – | –
19 | CN1C(=O)[C@@H](NC(=O)c2cc(Cc3ccccc3)on2)COc2ccc3cnccc3c21 [RIP1-111] | 18.5 | 1.16e-09 | – | –
20 | CN1C(=O)[C@@H](NC(=O)c2ncn(Cc3ccccc3)n2)COc2cc3occc3cc21 [RIP1-119] | 19.1 | 5.81e-10 | – | –
21 | CN1C(=O)[C@@H](NC(=O)c2cn(Cc3ccccc3)cn2)COc2cc3occc3cc21 [RIP1-120] | 20.7 | 2.56e-09 | – | –
22 | CN1C(=O)[C@@H](NC(=O)c2cn(Cc3ccccc3)nn2)COc2cc3occc3cc21 [RIP1-121] | 32.7 | – | 1.37e-08 | –
23 | CN1C(=O)[C@@H](NC(=O)c2nnn(Cc3ccccc3)n2)COc2cc3occc3cc21 [RIP1-122] | 15.6 | 2.26e-10 | – | –
24 | CN1C(=O)[C@@H](NC(=O)c2noc(Cc3ccccc3)n2)COc2cc3occc3cc21 [RIP1-123] | 23.2 | 1.33e-09 | – | –

Row | Structure (SMILES) | Ki (human RIP1) [nM] | IC50 (Jurkat (FADD−/−) cells; [1]) [M] | IC50 (Jurkat (FADD−/−) cells; Homo sapiens, Jurkat) [M] | IC50 (Jurkat (FADD−/−) cells; TNF 10 ng/mL, intracellular ATP level) [M]
25 | CN1C(=O)[C@@H](NC(=O)c2nnc(Cc3ccccc3)o2)COc2cc3occc3cc21 [RIP1-125] | 19.6 | 8.43e-10 | – | –
26 | CN1C(=O)[C@@H](NC(=O)c2cc(Cc3ccccc3)on2)COc2cc3occc3cc21 [RIP1-126] | 25.6 | 2.61e-09 | – | –
27 | CN1C(=O)[C@@H](NC(=O)c2nnc(Cc3ccccc3)[nH]2)COc2cc3occc3cc21 [RIP1-127] | 16.2 | 3.28e-09 | – | –
28 | CN1C(=O)[C@@H](NC(=O)c2nnn(Cc3ccccc3)n2)COc2cc3nccnc3cc21 [RIP1-131] | 28.6 | 1.29e-09 | – | –
29 | CN1C(=O)[C@@H](NC(=O)c2noc(Cc3ccccc3)n2)COc2cc3nccnc3cc21 [RIP1-132] | 19.3 | 4.57e-09 | – | –
30 | Cc1ccc(Cc2cc(C(=O)N[C@H]3COc4cc5nccnc5cc4N(C)C3=O)nn2C)cc1 [RIP1-133] | 23.1 | 5.3e-08 | – | –
31 | CN1C(=O)[C@@H](NC(=O)c2nnc(Cc3ccccc3)o2)COc2cc3nccnc3cc21 [RIP1-134] | 21.9 | 9.03e-09 | – | –
32 | CN1C(=O)[C@@H](NC(=O)c2nnc(Cc3ccccc3)[nH]2)COc2cc3nccnc3cc21 [RIP1-135] | 21.5 | 4.25e-09 | – | –
33 | CN1C(=O)[C@@H](NC(=O)c2n[nH]c(Cc3ccccc3F)n2)COc2cc3ncoc3cc21 [RIP1-206] | – | 8.18e-10 | – | –
34 | CN1C(=O)[C@@H](NC(=O)c2n[nH]c(Cc3ccc(F)cc3)n2)COc2cc3nccnc3cc21 [RIP1-207] | – | 4.88e-09 | – | –
35 | CN1C(=O)[C@@H](NC(=O)c2n[nH]c(Cc3ccccc3F)n2)COc2cc3nccnc3cc21 [RIP1-208] | – | 1.49e-09 | – | –
36 | CN1C(=O)[C@@H](NC(=O)c2n[nH]c(Cc3cccc(F)c3)n2)COc2cc3nccnc3cc21 [RIP1-209] | – | 1.92e-09 | – | –
37 | CN1C(=O)[C@@H](NC(=O)c2cc(Oc3cccnc3)ccn2)COc2ccc3ncccc3c21 [RIP1-210] | – | 7.8e-09 | – | –
38 | CN1C(=O)[C@@H](NC(=O)c2nnc(Oc3ccccc3)[nH]2)COc2cc3ncoc3cc21 [RIP1-211] | – | 2.72e-07 | – | –
39 | CN1C(=O)[C@@H](NC(=O)c2cc(Oc3cccnc3)ccn2)COc2cc3ncoc3cc21 [RIP1-212] | – | 1.81e-08 | – | –
40 | CN1C(=O)[C@@H](NC(=O)c2nccc(Oc3ccccc3)n2)COc2cc3ncoc3cc21 [RIP1-213] | – | 7.68e-08 | – | –
41 | CN1C(=O)[C@@H](NC(=O)c2cc(Oc3cccnc3)ccn2)COc2cc3nccnc3cc21 [RIP1-214] | – | 2.41e-08 | – | –
42 | CN1C(=O)[C@@H](NC(=O)c2nccc(Oc3ccccc3)n2)COc2cc3nccnc3cc21 [RIP1-215] | – | 3.45e-07 | – | –
43 | CN1C(=O)[C@@H](NC(=O)c2nnc(Cc3cccc(F)c3)[nH]2)COc2cc3ocnc3cc21 [RIP1-217] | – | 1.38e-09 | – | –
44 | CN1C(=O)[C@@H](NC(=O)c2nnc(Cc3ccccc3)[nH]2)COc2cc3ocnc3cc21 [RIP1-218] | – | 1.24e-09 | – | –
45 | CN1C(=O)[C@@H](NC(=O)c2nnc(Cc3ccccc3F)[nH]2)COc2cc3ocnc3cc21 [RIP1-219] | – | 6.75e-10 | – | –
46 | CN1C(=O)[C@@H](NC(=O)c2nc(Cc3ccccc3)n(C)n2)COc2cc3ncoc3cc21 [RIP1-220] | – | > 2e-05 | – | –
47 | CN1C(=O)[C@@H](NC(=O)c2cc(Cc3ccccc3)ccn2)COc2cc3ncoc3cc21 [RIP1-221] | – | 7.31e-09 | – | –
48 | CN1C(=O)[C@@H](NC(=O)c2n[nH]c(Cc3cccc(F)c3)n2)COc2cc3ncoc3cc21 [RIP1-222] | – | 5.62e-09 | – | –
